Reference: patent publication US20150191484A1, “NOVEL COMPOUNDS HAVING A TETRACYCLIC IRIDOID SKELTON AND AN ANTI-TRYPANOSOMAL AGENT COMPRISING THE SAME AS AN ACTIVE INGREDIENT” (NATIONAL UNIVERSITY CORPORATION TOKYO MEDICAL AND DENTAL …, priority 2014, published 2015)
Entries after “also recorded” stand apart in the source; their conditions may differ.

Columns and labels:
Leishmania = conditions: reported in literature; cited from earlier work
[1] = MTT cytotoxicity assay, HF-19; format: cell-based, human; conditions: human, HF-19 normal fibroblast cells; HF-19 normal fibroblast, 48 h, MTT
Method: (§1) The cytotoxic activity of natural products against mammalian cells is an important point in the search for active compounds with biological activity. […] In order to confirm the selective and potent anti-trypanosomal activity of ML-2-2 and ML-2-3, we examined their cytotoxicity in a panel of human cell lines including two human fibroblastic and 8 human cancer-derived cell lines. Cells were seeded in 96-well microplates and incubated with ML-2-2 and ML-2-3 for 48 h at 37° C. in a 5% CO2 humidified incubator. The viabilities of cells were determined with the MTT (3-(4,5-dimethylthiazol-2-yl)-2-5-diphenyltetrazolium bromide) assay. The selectivity index (SI) was determined using the following equation: IC50 against human cells/IC50 against T. brucei. The IC50 values of ML-2-3 were higher than those of ML-2-2 in all the cell lines examined. […] The SI of ML-2-2 indicates values below 1.00 in most cell lines. On the other hand, SI values of ML-2-3 were much higher than those of ML-2-2 in all tested cell lines.

[2] = system: HF-19 (normal fibroblast); test: MTT cytotoxicity assay, HF-19; format: cell-based, human; conditions: IC50 against HF-19 / IC50 against T. brucei
Method: as §1

[3] = system: NB1RGB (normal fibroblast); test: MTT cytotoxicity assay, NB1RGB; format: cell-based, human; conditions: IC50 against NB1RGB / IC50 against T. brucei
Method: as §1

[4] = MTT cytotoxicity assay, NB1RGB; format: cell-based, human; conditions: human, NB1RGB normal fibroblast cells; NB1RGB normal fibroblast, 48 h, MTT
Method: as §1

Jurkat (leukemia) = test: MTT cytotoxicity assay, Jurkat; format: cell-based, human; conditions: IC50 against Jurkat / IC50 against T. brucei
Method: as §1

[5] = MTT cytotoxicity assay, Jurkat; format: cell-based, human; conditions: human, Jurkat leukemia cells; Jurkat leukemia, 48 h, MTT
Method: as §1

[6] = MTT cytotoxicity assay, U937; format: cell-based, human; conditions: human, U937 leukemia cells; U937 leukemia, 48 h, MTT
Method: as §1

U937 (leukemia) = test: MTT cytotoxicity assay, U937; format: cell-based, human; conditions: IC50 against U937 / IC50 against T. brucei
Method: as §1

THP-1 (leukemia) = test: MTT cytotoxicity assay, THP-1; format: cell-based, human; conditions: IC50 against THP-1 / IC50 against T. brucei
Method: as §1

[7] = MTT cytotoxicity assay, THP-1; format: cell-based, human; conditions: human, THP-1 leukemia cells; THP-1 leukemia, 48 h, MTT
Method: as §1

Caco2 (colon cancer) = test: MTT cytotoxicity assay, Caco2; format: cell-based, human; conditions: IC50 against Caco2 / IC50 against T. brucei
Method: as §1

[8] = MTT cytotoxicity assay, Caco2; format: cell-based, human; conditions: human, Caco2 colon cancer cells; Caco2 colon cancer, 48 h, MTT
Method: as §1

LoVo (colon cancer) = test: MTT cytotoxicity assay, LoVo; format: cell-based, human; conditions: IC50 against LoVo / IC50 against T. brucei
Method: as §1

[9] = MTT cytotoxicity assay, LoVo; format: cell-based, human; conditions: human, LoVo colon cancer cells; LoVo colon cancer, 48 h, MTT
Method: as §1

HCT-15 (colon cancer) = test: MTT cytotoxicity assay, HCT-15; format: cell-based, human; conditions: IC50 against HCT-15 / IC50 against T. brucei
Method: as §1

[10] = MTT cytotoxicity assay, HCT-15; format: cell-based, human; conditions: human, HCT-15 colon cancer cells; HCT-15 colon cancer, 48 h, MTT
Method: as §1

Trypanosoma cells [11] = test: Nexin apoptosis assay (FACS); format: cell-based, Trypanosoma brucei brucei
Method: (§2) The GUTat 3.1 strain of the bloodstream forms of T. b. brucei parasites was used for this study. Parasites were cultured in vitro according to the conditions established by Yabu et al, 1998.
(§3) Parasites were used when they reached a confluent concentration of 1×10^6 parasites/ml. Estimation of parasitemia was done with the Neubauer's counting chamber. Parasites were diluted to a concentration of 3×10^5 parasites/ml with HMI-9 medium and used for the various experiments.
This assay was performed to detect both Phosphatidylserine (PS) signal and fracture of nuclear membraneas markers of apoptosis. Seeding and incubation of parasites with plant materials (extracts, fractions and compounds) were done under the same conditions in Alamar Blue assay. […] The contents of the wells were then subjected to FACS analysis using, the Millipore guava easyCyte 5HT FACS machine for the sorting and estimation of apoptotic parasites according to the manufacturer's instructions.

Trypanosoma cells [12] = test: Cell cycle assay (FACS); format: cell-based, Trypanosoma brucei brucei; conditions: four times of IC50: 15 μM ML-2-3, 5 μM ML-2-2; 24 hours
Method: as §2, §3
This assay was performed to investigate any abnormal change in the parasites' cell cycle which may be caused by extracts/compounds with trypanocidal effect. […] The parasites were collected and transferred into 15 ml centrifuge tubes and centrifuged at 1700 rpm for 10 min, after which the supernatant was discarded. The pelleted parasites were re-suspended in 5 ml PBS solution and vortexed to form a suspension. The parasite suspension was centrifuged at 1700 rpm for 10 min and the supernatant discarded. The pelleted parasites were re-suspended in 1.5 ml of PBS and vortexed thoroughly before adding 3.5 ml absolute EtOH gradually to a final volume of 5 ml 70% EtOH. The parasites were then fixed at −20° C. for 1 h. The cell suspension was then centrifuged at 1700 rpm for 10 min and the supernatant discarded. Pelleted parasites were re-suspended in 200 μl of Guava Cell Cycle reagent, which has Propidium Iodide as its main constituent and incubated at room temperature for 30 min. The solution was transferred to wells of 96-well plate. The well contents were then subjected to FACS analysis using the Millipore guava easyCyte 5HT FACS machine, for the sorting of parasites according to the manufacturer's instructions.

KATOIII (stomach cancer) = test: MTT cytotoxicity assay, KATOIII; format: cell-based, human; conditions: IC50 against KATOIII / IC50 against T. brucei
Method: as §1

[13] = MTT cytotoxicity assay, KATOIII; format: cell-based, human; conditions: human, KATOIII stomach cancer cells; KATOIII stomach cancer, 48 h, MTT
Method: as §1

[14] = system: GUTat 3.1 strain of the bloodstream forms of T. b. brucei parasites; test: Alamar Blue assay (trypanocidal activity); format: cell-based, Trypanosoma brucei brucei; conditions: Trypanosoma brucei, 48 h, T. b. brucei, Alamar Blue, 48 h; read-out: IC50 of anti-trypanosomal activity
Method: as §2, §3
The Alamar Blue assay was carried out in a 96-well plate. About 1.5×10^4 Parasites were seeded with varied concentrations of the Morinda lucida crude extract, ranging from as low as 0.78 μg/ml to as high as 200 μg/ml, in a ratio of 1:1 in 100 μl volume per well. Berberine, a compound known as anti-trypanocidal agent, was used as a positive control. […] The parasites were incubated with the plant extracts for 24 hours at 37° C. and under 5% CO2. After 24 hours, 10% Alamar Blue dye was added to each well and re-incubated for another 24 hours under the same conditions but in darkness. After a total of 48 hours, the plate was read for absorbance at 540 nm using the TECAN Sunrise Wako Spectrophotometer. An Absorbance-concentration (extract) curve was drawn and the IC50 value of the plant extract was extrapolated. Alamar Blue assay was also performed on the fractions and compounds purified from Morinda Lucida to determine their IC50 values. The IC50 values obtained were compared with that of the positive control and trypanocidal activity determined.

HL-60 (leukemia) = test: MTT cytotoxicity assay, HL-60; format: cell-based, human; conditions: IC50 against HL-60 / IC50 against T. brucei
Method: as §1

[15] = MTT cytotoxicity assay, HL-60; format: cell-based, human; conditions: human, HL-60 leukemia cells; HL-60 leukemia, 48 h, MTT
Method: as §1

[16] = system: nuclear DNA of Trypanosoma cells; conditions: reported in literature; cited from earlier work

For `COC(=O)C1=CO[C@H]2O[C@@H]3/C(=C\c4ccc(O)c(OC)c4)C(=O)O[C@@]34C=C[C@@H]1[C@H]24` [Oruwacin], the anti-Leishmania activity (Leishmania) is given as “has anti-Leishmania activity”.
In the case of `COC(=O)C1=CO[C@@H]2O[C@H]3/C(=C\c4ccc(O)c(OC)c4)C(=O)O[C@]34C=C[C@H]1[C@H]24` [ML-2-2, (3aS,4aR,4a^1S,7aS,9aS,3E)-methyl 3-(4-hydroxy-3-methoxybenzylidene)-2-oxo-2,3,3a,4a,4a^1,7a-hexahydro-1,4,5-trioxadicyclopenta[a,hi]indene-7-carboxylate], the IC50 at 48 h [1] is reported as 12.1 µM, the “SI (selectivity index)” value [2] is reported as 9.54 and the “SI (selectivity index)” value [3] is reported as 4.73. The IC50 at 48 h [4] was 6.01 µM, the “SI (selectivity index)” value (Jurkat (leukemia)) was 1.93 and the IC50 at 48 h [5] was 2.45 µM. The IC50 at 48 h [6] was 4.08 µM, the “SI (selectivity index)” value (U937 (leukemia)) was 3.21 and the “SI (selectivity index)” value (THP-1 (leukemia)) was 5.50. For the same molecule, the IC50 at 48 h [7] was 6.98 µM, the “SI (selectivity index)” value (Caco2 (colon cancer)) was 1.06 and the IC50 at 48 h [8] was 1.35 µM. The “SI (selectivity index)” value (LoVo (colon cancer)) was 0.09, the IC50 at 48 h [9] was 0.11 µM and the “SI (selectivity index)” value (HCT-15 (colon cancer)) was 12.63. For the same molecule, the IC50 at 48 h [10] was 16 µM, the induction of apoptosis (Trypanosoma cells [11]; 6.25 μM, 24-hour incubation) was “no significant induction of apoptosis” and the “induction of apoptosis in Trypanosoma cells” value (Trypanosoma cells [11]; same concentration (6 μM)) was “did not”. The “numbers of cells in the G2 and M phase of cell cycle” value (Trypanosoma cells [12]) was “did not; also recorded: had no effect”, the “SI (selectivity index)” value (KATOIII (stomach cancer)) was 0.17 and the IC50 at 48 h [13] was 0.21 µM. For the same molecule, the IC50 [14] was 1.27 µM, the “SI (selectivity index)” value (HL-60 (leukemia)) was 3.05 and the IC50 at 48 h [15] was 3.87 µM.
In the case of `N=C(N)c1ccc(OCCCCCOc2ccc(C(=N)N)cc2)cc1` [Pentamidine], the “effect on nuclear DNA of Trypanosoma cells” value [16] is given as “no effect on nuclear DNA”.
